Reference: the NIST ThermoML archive (doi:10.1021/je500886a)

Test: mn = molality of the nth substance listed, in mol/kg
Conditions: 101 kPa, Liquid

[Br-].[NH4+] [ammonium bromide] + O
Conditions	mass density, 288.15 K [kg/m3]	mass density, 298.15 K [kg/m3]	mass density, 308.15 K [kg/m3]	mass density, 318.15 K [kg/m3]	viscosity, 288.15 K [mPa·s]	viscosity, 298.15 K [mPa·s]	viscosity, 308.15 K [mPa·s]	viscosity, 318.15 K [mPa·s]
m1 = 0.05	1001.05	998.76	995.75	992.91	1.132	0.888	0.719	0.597
m1 = 0.5	1024.05	1021.81	1019.06	1015.68	1.096	0.87	0.71	0.598
m1 = 1	1049.01	1046.88	1043.31	1040.33	1.057	0.853	0.697	0.6
m1 = 2	1095.99	1092.56	1088.78	1085.68	1.002	0.827	0.678	0.602

OC[C@@H](O)[C@H](O)[C@H](O)[C@@H](O)CO [dulcitol] + O
Conditions	mass density, 288.15 K [kg/m3]	mass density, 298.15 K [kg/m3]	mass density, 308.15 K [kg/m3]	mass density, 318.15 K [kg/m3]	viscosity, 288.15 K [mPa·s]	viscosity, 298.15 K [mPa·s]	viscosity, 308.15 K [mPa·s]	viscosity, 318.15 K [mPa·s]
m1 = 0.0503	–	–	–	–	1.164	0.909	0.732	0.605
m1 = 0.05086	1002.35	1000.21	997.18	993.33	–	–	–	–
m1 = 0.07104	–	–	–	–	1.175	0.916	0.737	0.609
m1 = 0.0735	1003.75	1001.6	998.55	994.68	–	–	–	–
m1 = 0.08768	1004.62	1002.46	999.39	995.51	–	–	–	–
m1 = 0.08872	–	–	–	–	1.185	0.921	0.743	0.612
m1 = 0.1066	1005.78	1003.6	1000.52	996.63	–	–	–	–
m1 = 0.1091	–	–	–	–	1.196	0.928	0.747	0.616
m1 = 0.1279	1007.07	1004.88	1001.77	997.86	–	–	–	–
m1 = 0.1283	–	–	–	–	1.204	0.935	0.752	0.619
m1 = 0.1457	1008.14	1005.94	1002.81	998.89	–	–	–	–
m1 = 0.1468	–	–	–	–	1.215	0.941	0.757	0.622

OC[C@@H](O)[C@H](O)[C@@H](O)CO [xylitol] + O
Conditions	mass density, 288.15 K [kg/m3]	mass density, 298.15 K [kg/m3]	mass density, 308.15 K [kg/m3]	mass density, 318.15 K [kg/m3]	viscosity, 288.15 K [mPa·s]	viscosity, 298.15 K [mPa·s]	viscosity, 308.15 K [mPa·s]	viscosity, 318.15 K [mPa·s]
m1 = 0.04981	–	–	–	–	1.164	0.909	0.733	0.607
m1 = 0.0542	1001.89	999.75	996.72	992.86	–	–	–	–
m1 = 0.06784	–	–	–	–	1.173	0.915	0.738	0.611
m1 = 0.07245	1002.81	1000.65	997.6	993.73	–	–	–	–
m1 = 0.0852	1003.45	1001.27	998.22	994.33	–	–	–	–
m1 = 0.08897	–	–	–	–	1.183	0.922	0.743	0.615
m1 = 0.1059	–	–	–	–	1.191	0.93	0.747	0.619
m1 = 0.1095	1004.66	1002.44	999.37	995.46	–	–	–	–
m1 = 0.1313	–	–	–	–	1.204	0.939	0.755	0.624
m1 = 0.1314	1005.74	1003.49	1000.41	996.48	–	–	–	–
m1 = 0.1501	–	–	–	–	1.212	0.945	0.76	0.628
m1 = 0.1527	1006.77	1004.5	1001.41	997.46	–	–	–	–
